Usually IC50 stands for the concentration that gives 50% inhibition. Low values mean inhibition by little substance, high ones a need for much substance. For orientation: solubility means how much of the substance goes into solution per volume.

One data set relates to HeLa cells. The data set is described as follows: Anti-proliferative activity in HeLa cell line (MTT assay). The data set is classed as cell-based. The following applies: Homo sapiens, 96 h, 4 days, mean of two repeated assays. As for the experimental part:
(§1) HeLa cells (ATCC, USA), which are a human cervical cancer cell line, were dispensed into a 96-well plate at 2×10^3 cells/well, and the cells were treated with DMSO or the indole derivatives of the present invention, and then allowed to grow for 4 days. And then, MTT (3-(4,5-Dimethylthiazol-2-yl)-2,5-diphenyltetrazolium bromide) reagent was added to the wells at 10 μl/well. After 2 hours, the absorbance was measured at “OD 450” and statistical values were obtained using the plizm6 program. The data represent mean values of the results of two repeated assays (Table 1).
(Formazan colour is commonly taken as a measure of viable cells.)

Another data set concerns NCIH-125. The data set can be described thus: Anti-proliferative activity in other cancer cell lines (MTT assay). As to conditions: Homo sapiens, NCI-H125, 96 h, NCIH-125 (lung), 4 days, mean of three assays. Format: cell-based. As for the experimental part:
as §1
(§2) Specifically, various cancer cell lines were cultured on a microtiter plate (1-3×10^3 cells/well), and the cells were treated with the indole derivative of the present invention and cultured for 4 days. Cytotoxicity was examined by the MTT assay by the same method as in Experimental Example 1-1, and the IC50 was obtained by the log-dose response curve. The data represent mean values of the results of three repeated assays (Table 2).

The next data set relates to MCF7. The description is as above. Format: cell-based. The following applies: Homo sapiens, 96 h, MCF7 (breast), 4 days, mean of three assays. As for the experimental part:
as §1, §2

In a further data set the test system is SNU 484. The data set is described as above. Format: cell-based. The following applies: 96 h, SNU 484 (stomach), 4 days, mean of three assays. How it is done:
as §1, §2

The next data set deals with NCIH-460. The description is as above. The data set is classed as cell-based. As to conditions: Homo sapiens, NCI-H460, 96 h, NCIH-460 (lung), 4 days, mean of three assays. As for the experimental part:
as §1, §2

For the next data set, the system named is HepG2. The description is as above. The data set is classed as cell-based. The following applies: Homo sapiens, 96 h, HepG2 (liver), 4 days, mean of three assays. How it is done:
as §1, §2

The next data set concerns U373MG. Described as above. The data set is classed as cell-based. The following applies: Homo sapiens, U373 MG, 96 h, U373MG (brain), 4 days, mean of three assays. As for the experimental part:
as §1, §2

Data set [1] relates to Several cancer cell lines. The data set can be described thus: Effect on cell cycle progression, summary over the cell lines of Table 5. Format: cell-based. As to conditions: summary over the cell lines of Table 5, 17 hours. As for the experimental part: Several cancer cell lines were cultured on a 12 well plate (3×10^4 cells/well), and treated with DMSO or WCI-1031, an indole derivative of the present invention, for 17 hours, and then added with a propidium iodine dye to stain the cellular DNA, and subjected to measurement using FACS. The concentrations at which cells gathered in the G2/M phase and numbers of the cells represented as percentages were shown (Table 5).

For the next data set, the system named is K562/ADR. The data set can be described thus: Anti-proliferative activity in cancer cells showing multiple drug resistance (MTT assay). The data set is classed as cell-based. How it is done:
(§3) HeLa cells (ATCC, USA), which are a human cervical cancer cell line, were dispensed into a 96-well plate at 2×10^3 cells/well, and the cells were treated with DMSO or the indole derivatives of the present invention, and then allowed to grow for 4 days. And then, MTT (3-(4,5-Dimethylthiazol-2-yl)-2,5-diphenyltetrazolium bromide) reagent was added to the wells at 10 μl/well. After 2 hours, the absorbance was measured at “OD 450” and statistical values were obtained using the plizm6 program. The data represent mean values of the results of two repeated assays (Table 1). Specifically, K562 and MCF7 (Bio Evaluation Center, Korea Research Institute of Bioscience and Biotechnology, Korea), and K562/ADR and MCF7/ADR (Bio Evaluation Center, Korea Research Institute of Bioscience and Biotechnology, Korea), which are multiple drug-resistant cell lines of the above mentioned cell lines, respectively, were cultured on a microtiter plate at 1-3×10^3 cells/well.

For another data set, the system named is MCF7/ADR. The description is as above. The data set is classed as cell-based. How it is done: as §3
The nature of data set [2]: Stability in blood plasma after intravenous injection. The data set is classed as in vivo. The following applies: plasma concentration over time (FIG. 7). How it is done:
In order to examine the stability of the indole derivative of the present invention in vivo, the compound of Example 1 (WCI-1031) was injected intravenously and the plasma concentration was observed over time (FIG. 7).

The test system of data set [3] is human-derived skin cancer cell line (A431). The data set is described as follows: Anti-cancer effect in human-derived skin cancer cell (A431) implantation nude mouse model. The data set is classed as in vivo, BALB/C female nude mouse. The following applies: for tumor growth inhibition: days 0-23, last day (day 23), vs solvent control; for tumor weight reduction: excised A431 tumors weighed. As for the experimental part:
The human cancer cell line A431 which was kept frozen in liquid nitrogen was thawed and cell culture was conducted. Cells were cultured in a CO2 incubator (Forma, USA) at 37° C. and 5% CO2 for an appropriate period of time. On the last day of culture, all cancer cells were collected and counted and the cell concentration was adjusted to 1×10^7 cells/ml using serum free media. The culture solution thus prepared was injected subcutaneously in the axillary region between the scapula and chest wall in an amount of 0.3 ml per BALB/C female nude mouse (5 weeks old, Nara Biotech) (3×10^6 cells/mouse). […] To examine the toxicity levels of the repeated intraperitoneal administration of WCI-1031 to A431 cancer cell implantation nude mice, general symptoms and weight changes of the animals were observed during the administration period. […] On day 23 after the start of the drug administration, blood was taken from the mice through ophthalmic veins 2 hours after the last administration, and the mice were sacrificed using CO2 gas. Then the mice were photographed and the tumors was isolated and weighed in a chemical balance. After taking photographs, each tumor was divided in half, and the resultant tumors were fixed to liquid nitrogen and formalin, respectively.

Data set [4] is described as follows: Solubility in phosphate buffer. The data set is classed as physicochemical. As to conditions: aqueous buffer, thermodynamic from solid. As for the experimental part: In order to examine the solubility of the indole derivative of the present invention, the solubility of the compound of Example 1 (WCI-1031) was examined at pH 6.5 or pH 7.4.
Specifically, a solid sample (˜1 mg) of the test substance was placed on Whatman Syringeless filter (PVDF membrane, 0.45 μm pore size) and mixed with 0.5 ml of a phosphate buffer (pH 6.5 or 7.4). The mixture was sonicated for 15 minutes and vortexed for 1 hour at room temperature. The equilibrated mixture was filtered and the filtrate was analyzed with a multi-wavelength UV plate reader (FIGS. 8 and 9).

Data set [5] is described as follows: Maximum absorbable dose in human (Table 6). The following applies: for MAD (maximum absorbable dose in human): SIWV 250 ml, SITT 270.

Converted amounts (≈) assume the structure as drawn.

Regarding `COC(=O)Cn1c(C)c(/C=N/NC(=O)c2cc3c(ccc4ccccc43)o2)c2ccccc21` [WCI-1031, methyl (E)-2-(2-methyl-3-((2-(naphtho[2,1-b]furan-2-carbonyl) hydrazono)methyl)-1H-indole-1-yl)acetate], the IC50 with HeLa cells turned out to be 653 nM; in the data set with NCIH-125 it was 333 nM; in the data set on MCF7, 1320 nM; in the data set with SNU 484 it was 493 nM; with NCIH-460, 671 nM; in the data set on HepG2 it was 2400 nM. Moreover, the IC50 was found to be 262 nM in the data set on U373MG; 318 nM in the data set on K562/ADR (Homo sapiens, 96 h, K562/ADR multiple drug-resistant line, 4 days, MTT, mean of three assays); 481 nM with MCF7/ADR (Homo sapiens, NCI/ADR-RES, 96 h, MCF7/ADR multiple drug-resistant line, 4 days, MTT, mean of three assays). In data set [1], the “numbers of the cells in the G2/M phase” value is given as not below 50%. Further, the Resistance factor in the data set with K562/ADR (ratio of IC50 K562/ADR to IC50 K562) was found to be 0.60; in the data set on MCF7/ADR (ratio of IC50 MCF7/ADR to IC50 MCF7), 0.36. Also, the “stability in the blood plasma” value in data set [2] is “excellent”. Also, the tumor growth inhibition in data set [3] (10 mg/kg) is listed as 9.3%; in data set [3] (20 mg/kg, p<0.001), 37.2%. The tumor weight reduction amounted to 10.7% in data set [3] (10 mg/kg) and 38.0% in data set [3] (20 mg/kg, p<0.001). The solubility at 1 h in data set [4] (phosphate buffer pH 6.5, room temperature) came out at 0.9 µg/mL (≈ 2.05 µM); in data set [4] (phosphate buffer pH 7.4, room temperature), 0.4 µg/mL (≈ 0.91 µM). In addition, the “Ka (intestinal absorption rate constant)” value in [5] (pH 6.5) and in [5] (pH 7.4) was 0.03 min⁻¹ in each case. Besides, the “MAD (maximum absorbable dose in human)” value in data set [5] (pH 6.5) is reported as 1.8 mg; in data set [5] (pH 7.4) it was 0.8 mg.
